# Tests used:
# Ts65Dn mice [1] = type: in vivo, mouse
# Procedure: (§1) A 4-week longitudinal crossover study is carried out following the method outlined by Fernandez et al., supra. Wild-type and Ts65Dn mice (3-4 months of age) are randomly assigned to groups receiving daily i.p. injections of saline or flumazenil (1.0 mg/kg), and are submitted to four weekly repetitions of object recognition testing, in which the animals are serially presented with four different object sets. At the 2-week midpoint of the experimental period, wild-type and Ts65Dn mice that have been receiving saline are randomly segregated into groups that either continue to receive daily saline injections or begin to receive daily injections of flumazenil. Conversely, wild-type and Ts65Dn mice that have been chronically administered flumazenil in the first 2 weeks of testing are switched onto a saline regimen. Alongside saline and flumazenil, bilobalide (i.p. 5.0 mg/kg) may be evaluated as a positive control. Bilobalide is a picrotoxin-like compound that may safely be administered for the whole 4-week experiment.
# (§2) Flumazenil may also be tested for its effects on declarative memory in the novel object recognition test and in a modified spontaneous alternation task. Wild-type and Ts65Dn mice may be administered flumazenil (3 mg/kg in milk via voluntary oral feeding or 1 mg/kg i.p.). The wild-type and Ts65Dn mice are administered from 5 to 30 doses of milk or milk-flumazenil (or saline or flumazenil solution i.p.). The mice are then subjected to two repetitions of novel object recognition testing or three daily T-maze sessions at the tail end of the treatment regimen. […] Comparison of treated and untreated Ts65Dn mice will provide controls for any possible arm bias in the spontaneous alternation task.
# as §1, with “bretazenil” for “flumazenil”, “bretazenil.” for “flumazenil.”, “bretazenil,” for “flumazenil,”
# as §2, with “Bretazenil may” for “Flumazenil may”, “administered bretazenil” for “administered flumazenil”
# Ts65Dn mice [2] = test: Novel object recognition assay (Discrimination Index) in Ts65Dn mice, model of Down syndrome; type: in vivo, mouse
# Procedure: Following baseline determinations and group assignments, WT and Ts65Dn mice received intraperitoneal (i.p.) injections once/day (08:00) for the two-week duration of the drug treatment regimen (FIG. 1). Drugs were dissolved in physiological saline. Two drops of Tween 80 were used to facilitate solution formation for flumazenil. Picrotoxin was initially made up at 50× concentration in 20% ethanol and then diluted down to a […] solution with 0.4% ETOH in saline. Doses of drugs were based on previous behavioral research in mice (1 mg/kg for PTX and 10 mg/kg for flumazenil). Injections were given in a volume of 10 ml/kg. A vehicle control was run along side the treatment groups (0.4% ETOH in saline).
# FIG. 1 graphically depicts the protocol. After habituation to the animal facility, mice were tested for baseline behaviors in the open-field locomotor assay (LMA)(30 min session) and the novel object recognition assay. Primary experimental groups were divided by genotype (Ts65Dn mice and wild-type control littermates). These two groups were further divided into drug treatments (vehicle, PTX and flumazenil) with a targeted n-size of 8 mice/group (24 WT and 24 Ts65Dn mice total). The group assignments were made in a semi-random process due to constraints in animal availability (staggered shipping) and choice of initial treatment groups (e-mail documentation between Bilsky laboratory and Cypress Bioscience on file). Daily morning injections began on Day 1 and went through the morning of Day 14. On Days 7/8 and 14/15 (13:00) mice were tested in the behavioral assay. Mice were kept for an additional two weeks and re-tested on Days 21/22 and 28/29 to assess the duration of the drug treatment effect.
# The novel object recognition task is based on the innate tendency of rodents to differentially explore novel objects over familiar ones. The task is well validated for evaluating rodent memory and the effects of drug treatments on learning/memory performance.
# Mice were trained and tested once per week, each experimental session separated by a one-week interval. Mice were submitted to daily handling sessions, and given an opportunity to habituate to an open field arena (48 cm×48 cm wide×25 cm), where they were exposed to two different objects (complex protocol), during a 5-minute training session. Objects were made from various non-porous materials that differ in shape and color. Mice were unable to climb onto the objects and the objects were generally consistent in height and volume, and were roughly symmetrical on a horizontal plane. Objects were positioned in two corners of the apparatus. To control for odor cues, the open field arena and the objects are thoroughly cleaned with 90% ethanol, dried, and ventilated for a few minutes between mice.
# A 5-minute testing session was conducted 24 h after training. Here, the mice were presented with the object they had explored the previous day, and a new item (the objects being alternatively positioned in one corner or another in a balanced fashion within a given week, and from one week to another). […]
# Ts65Dn mice [3] = test: Long-term potentiation (LTP) in the dentate gyrus of Ts65Dn mice (paper Examples 1 and 2); type: in vivo, mouse; conditions: about 1 month after cessation of drug treatment
# Description: Since the ability of animals to learn and remember is thought to be encoded at the synaptic level, and involves the ability of synapses to undergo long-term changes in synapse strength, long-term potentiation (LTP) in the dentate gyrus may be evaluated.
# benzodiazepine receptors = conditions: cited from earlier work
smiles,measurement,setting,value
"CCOC(=O)c1ncn2c1CN(C)C(=O)c1cc(F)ccc1-2 [flumazenil, 8-fluoro-5,6-dihydro-5-methyl-6-oxo-4H-imidazo[1,5-a]benzodiazepine-3-carboxylic acid ethyl ester]",object recognition performance,"Ts65Dn mice [1]; 4-week crossover, flumazenil or bretazenil 1.0 mg/kg i.p. for 2 weeks, bilobalide 5.0 mg/kg i.p. throughout",normalized object recognition performance
same,discrimination indices in the object recognition task,"Ts65Dn mice [1]; 5 to 30 doses, 3 mg/kg in milk orally or 1 mg/kg i.p.",on a par with those of wild-type mice
same,"novel object recognition testing, long term","Ts65Dn mice [1]; up to at least 2 months after treatment, treated for at least about 15 days",long-term improvement
same,Discrimination Index (DI),"Ts65Dn mice [2]; Week 1 of drug therapy, PTX 1 mg/kg, flumazenil 10 mg/kg i.p.",positive effects
same,Discrimination Index (DI),Ts65Dn mice [2]; Week 2 of drug therapy,positive effects
same,effect in the object recognition assay as compared to vehicle,"Ts65Dn mice [2]; flumazenil 10 mg/kg i.p., conclusion",beneficial effect
same,LTP in the dentate gyrus,Ts65Dn mice [3],Normalized LTP
same,antagonism of the effects of diazepam,benzodiazepine receptors; given orally or intravenously,effectively antagonizes
same,activity at oral dosing,"benzodiazepine receptors; oral 30 to 100 mg, normal adult human subjects",partial benzodiazepine agonist

# Source: patent US20090270373A1, “TREATMENT OF DOWN SYNDROM WITH BENZODIAZEPINE RECEPTOR ANTAGONISTS” (Cypress Biosciences, Inc., priority 2008, published 2009)
